Measured values reported in US20260272889A1, “COGNITIVE FUNCTION-IMPROVING AGENT AND PHARMACEUTICAL COMPOSITION FOR TREATING OR PREVENTING COGNITIVE DYSFUNCTION” (TOHOKU UNIVERSITY, priority 2022, published 2026).

How the values were obtained:
[1] = test system: schizophrenic model (MK-801) mice; assay: Novel object recognition test (NORT), MK-801 schizophrenic model, Example 2; format: in vivo, C57BL/6J mice
Protocol: (§1) Inbred C57BL/6J (B6J) mice were purchased from Charles River Laboratories Japan, Inc. (Kanagawa, Japan). The mice were housed four by four in standard cages and reared on a 12-hour light/dark cycle (lights on at 8:00 and off at 20:00) in a room where temperature and humidity were controlled. The mice had free access to standard laboratory chow MF (ORIENTAL YEAST Co., Ltd., Tokyo, Japan) and water. No special environmental enrichment was provided in the home cage. Behavioral testing was performed using males from 10:00 to 18:00.
(§2) MK-801 (FUJIFILM Wako Pure Chemical Corporation, Osaka, Japan) was diluted with physiological saline to a concentration of 1 mg/ml to prepare a stock solution, which was stored at −80° C. The MK-801 stock solution (1 mg/ml) was then further diluted with physiological saline to 20 μg/ml and stored at −20° C. as a solution for administration. The MK-801 administration solution (20 μg/ml) was thawed on the day of administration and used for administration to mice. The MK-801 administration solution (20 μg/ml) was used within one week after freezing. MK-801 is an antagonist of an NMDA (glutamatergic N-methyl-D-aspartate) receptor. Chronic administration of MK-801 to mice causes a decrease in spine density and abnormal behavior similar to schizophrenia in mice. Mice to which MK-801 was chronically administered were used as a disease model of schizophrenia. Mice to which physiological saline was administered instead of MK-801 were used as a healthy model.
(§3) Pemafibrate (Toronto Research Chemicals, Tronto, Canada) was diluted with DMSO to a concentration of 30 mg/ml and stored as a stock solution at −80° C. On the day of administration, the pemafibrate stock solution (30 mg/ml) was diluted with corn oil (Sigma-Aldrich, USA) to a concentration of 0.1 mg/ml and used for administration to mice. As a control, a DMSO solution prepared by diluting DMSO in corn oil was used for administration to mice (DMSO:corn oil=1:300).
(§4) MK-801 (0.2 mg/kg/day) or physiological saline was intraperitoneally administered to 6-week-old C57BL/6J mice (males) once a day for 2 weeks. […]

[2] = test system: schizophrenic model (MK-801) mice; assay: Spine density analysis of prefrontal cortex pyramidal cells, Example 2; format: in vivo, C57BL/6J mice
Protocol: as §1, §2, §3, §4

[3] = test system: mouse microglial cell line MG6; assay: qRT-PCR of cytokine expression in microglial cell line MG6 (Example 1); format: cell-based; conditions: MG6 cells, 0.03 μM or 0.1 μM, 24 hours, qRT-PCR normalized with Gapdh
Protocol: A mouse microglial cell line MG6 was used for experiments. MG6 was seeded on a 12-well plate at 5×10^4 cells/well using a DMEM (high glucose) medium containing 10% of FBS, 10 μg/ml of insulin, and 0.1 mM of 2-mercaptoethanol. The seeded MG6 was cultured in an incubator at 37° C. and a CO2 concentration of 5%. After 24 hours from the start of culture, drugs were added as follows. First, pemafibrate as the PPARα agonist was diluted with DMEM (high glucose) medium to have a final concentration of 0.03 μM or 0.1 μM using dimethylsulfoxide (DMSO) as a solvent. Then, the total amount of the medium of the well in which MG6 was seeded was replaced with the medium containing 0.03 μM or 0.1 μM of pemafibrate, or a medium to which DMSO was added as a control. Cells were collected additional 24 hours after the medium replacement.
Total RNA was extracted from the collected cells using RNeasy Mini kit (Qiagen). Reverse transcription of the total RNA was performed using GeneAce cDNA Synthesis Kit (FUJIFILM Wako Pure Chemical Corporation). THUNDERBIRD (trade name) SYBR qPCR Mix (Toyobo) was used to perform qRT-PCR by ABI7500 Real Time PCR system (Thermo Fisher Scientific). Relative gene expression was calculated by a ΔCt method and normalized with Gapdh. The following primers were used.

[4] = test system: schizophrenic model (MK-801) mice; assay: Spine density analysis, examination of prophylaxis, Example 3; format: in vivo, C57BL/6J mice; conditions: FIG. 12
Protocol: (§5) Animals and reagents the same as in Example 2 were used.
(§6) Examination of prophylaxis: Pemafibrate (0.3 mg/kg/day) or solvent (DMSO solution) was orally administered to 6-week-old C57BL/6J mice (males) once a day for 2 weeks. Mice to which pemafibrate was administered and mice to which DMSO was administered were each divided into two groups, to which MK-801 (0.2 mg/kg/day) or physiological saline was intraperitoneally administered once a day for two weeks.
(§7) Sampling for spine density analysis was performed after completion of NORT. Spine density analysis was performed using a group of 6 mice. Spine density analysis was performed in a manner similar to that in Example 2.
(§8) In the examination of the prophylaxis, pemafibrate was administered to 6-week-old mice for 2 weeks, and then MK-801 was administered thereto for 2 weeks (see upper parts in FIG. 11 and FIG. 12). In the healthy model, physiological saline (saline) was administered instead of MK-801.

[5] = test system: schizophrenic model (MK-801) mice; assay: NORT, examination of therapeutic method, Example 3; format: in vivo, C57BL/6J mice; conditions: FIG. 9
Protocol: as §5
(§9) MK-801 (0.2 mg/kg/day) or physiological saline was intraperitoneally administered to 6-week-old C57BL/6J mice (males) once a day for 2 weeks. Mice to which MK-801 was administered and mice to which physiological saline was administered were each divided into two groups, to which pemafibrate (0.3 mg/kg/day) or solvent (DMSO solution) was orally administered once a day for one week.
(§10) NORT was performed using a group of 12 mice. NORT was performed in a manner similar to that in Example 1.
(§11) In the examination of the therapeutic method, a schizophrenic model in which MK-801 was administered to 6-week-old mice for 2 weeks was used (see upper parts in FIGS. 9 and 10). In the healthy model, physiological saline (saline) was administered instead of MK-801.

[6] = test system: schizophrenic model (MK-801) mice; assay: Spine density analysis, examination of therapeutic method, Example 3; format: in vivo, C57BL/6J mice
Protocol: as §5, §9, §7, §11

[7] = test system: schizophrenic model (MK-801) mice; assay: NORT, examination of prophylaxis, Example 3; format: in vivo, C57BL/6J mice; conditions: FIG. 11
Protocol: as §5, §6, §10, §8

[8] = prophylaxis: pemafibrate 0.3 mg/kg/day oral 2 weeks, then MK-801 2 weeks, group (4)
[9] = schizophrenic model (MK-801(+)), pemafibrate 0.3 mg/kg/day oral 1 week, FIG. 8

| Compound | NORT dwell time, new object vs familiar object ([1]; MK-801 0.2 mg/kg/day i.p. 2 weeks, no pemafibrate, FIG. 5) | spine density compared with healthy model (saline) ([2]; MK-801 0.2 mg/kg/day i.p. 2 weeks, no pemafibrate, FIG. 7) | expression of inflammatory cytokines (IL-1b, Tnfa) ([3]; FIG. 1) | expression of anti-inflammatory cytokines (IL-4, IL-10) ([3]; FIG. 2) | NORT dwell time around new object compared with familiar object ([1]; healthy model (MK-801(-)), pemafibrate 0.3 mg/kg/day oral 1 week, FIG. 6) | NORT dwell time around new object compared with familiar object ([1]; schizophrenic model (MK-801(+)), pemafibrate 0.3 mg/kg/day oral 1 week after MK-801, FIG. 6) | decrease in spine density caused by MK-801 ([4]; prophylaxis: group (4) vs non-administration group (3)) | spine density compared with healthy models [4, 8] | NORT dwell time around new object compared with familiar object ([5]; therapeutic: healthy models (saline), with pemafibrate) | NORT dwell time around new object compared with familiar object ([5]; therapeutic: schizophrenic model group (4), pemafibrate 0.3 mg/kg/day oral 1 week after MK-801 2 weeks) | effect on spine density of schizophrenic model ([6]; therapeutic: group (4) vs non-administration group (3), FIG. 10) | spine density compared with healthy models ([6]; therapeutic: schizophrenic model group (4), pemafibrate 0.3 mg/kg/day oral 1 week after MK-801, FIG. 10) | NORT dwell time around new object compared with familiar object ([7]; prophylaxis: healthy models (saline), with pemafibrate) | NORT dwell time around new object compared with familiar object [7, 8] | spine density compared with healthy model [2, 9] | spine density compared with pemafibrate non-administration group of schizophrenic model [2, 9] |
| --- | --- | --- | --- | --- | --- | --- | --- | --- | --- | --- | --- | --- | --- | --- | --- | --- |
| C[C@]12N[C@H](Cc3ccccc31)c1ccccc12 [MK-801] | no significant difference | significantly reduced |  |  |  |  |  |  |  |  |  |  |  |  |  |  |
| CC[C@@H](Oc1cccc(CN(CCCOc2ccc(OC)cc2)c2nc3ccccc3o2)c1)C(=O)O [pemafibrate] |  |  | inhibits the expression | inhibits the expression | significantly longer | significantly longer | suppressed | no significant difference | significantly longer | significantly longer | restores the spine density | no significant difference | significantly longer | significantly longer | no significant difference | significantly increased |
